# Test results from US20110098325A1, “PYRIDINE BENZAMIDES AND PYRAZINE BENZAMIDES USED AS PKD INHIBITORS” (CANCER RESEARCH TECHNOLOGY LIMITED, priority 2006, published 2011).
# Target: T1, Human full length PKD1 (Homo sapiens, UniProt Q15139)
# T1 construct: Human full length PKD1 at ˜100 μg/mL purchased from Upstate Ltd; purchased Upstate Ltd 14-508
# T1 sequence (Q15139 1-912): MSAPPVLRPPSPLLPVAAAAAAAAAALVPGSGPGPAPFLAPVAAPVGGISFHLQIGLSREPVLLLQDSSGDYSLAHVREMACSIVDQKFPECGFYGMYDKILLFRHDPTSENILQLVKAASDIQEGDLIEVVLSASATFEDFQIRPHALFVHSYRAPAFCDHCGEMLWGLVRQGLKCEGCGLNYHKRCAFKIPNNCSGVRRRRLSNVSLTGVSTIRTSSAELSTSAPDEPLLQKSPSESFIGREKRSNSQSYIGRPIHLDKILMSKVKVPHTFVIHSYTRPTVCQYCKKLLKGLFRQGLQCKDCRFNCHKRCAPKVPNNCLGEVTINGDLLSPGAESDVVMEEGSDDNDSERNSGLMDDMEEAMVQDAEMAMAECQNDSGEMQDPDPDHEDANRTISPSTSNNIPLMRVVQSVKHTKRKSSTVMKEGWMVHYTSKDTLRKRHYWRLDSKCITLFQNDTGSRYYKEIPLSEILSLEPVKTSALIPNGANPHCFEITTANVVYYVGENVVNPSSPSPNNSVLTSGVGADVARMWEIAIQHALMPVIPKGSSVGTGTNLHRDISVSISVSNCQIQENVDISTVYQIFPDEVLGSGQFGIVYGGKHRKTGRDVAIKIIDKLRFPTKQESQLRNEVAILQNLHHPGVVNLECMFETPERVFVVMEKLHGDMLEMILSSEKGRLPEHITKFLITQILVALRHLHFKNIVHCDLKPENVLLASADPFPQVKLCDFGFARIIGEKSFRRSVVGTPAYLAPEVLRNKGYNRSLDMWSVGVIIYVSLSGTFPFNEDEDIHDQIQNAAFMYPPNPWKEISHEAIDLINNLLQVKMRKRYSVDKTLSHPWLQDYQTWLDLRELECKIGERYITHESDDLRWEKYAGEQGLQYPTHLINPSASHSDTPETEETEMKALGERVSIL
# Assay: PKD1 (Human Full Length) Enzyme Activity Assay (IMAP fluorescence polarisation)
# Assay type: biochemical
# Conditions: 10 μM ATP, 25 minutes, room temperature
# Experimental: Kinase Assay Reaction Buffer: This consisted of 0.22 μM filtered 25 mM HEPES and 2 mM MgCl2 pH 7.5.
# Kinase Enzyme: Human full length PKD1 at ˜100 μg/mL purchased from Upstate Ltd (Product code 14-508) was obtained from aliquots stored at −70° C. It was prepared with a final concentration of 0.3 μg/mL by diluting 1:300 in Reaction Buffer (30 μL per 9 mL-5 mL per plate with an additional 4 mL dead volume) and vortexing prior to use.
# Substrate: Fluorescein labelled glycogen synthase-derived peptide (FI)-KKLNRTLSVA (also known as MAPKAP K2 substrate) was obtained from Molecular Devices (Product code R7127). […]
# The fluorescence polarisation of the substrate in each well was recorded using an analyst microplate reader (Molecular Devices) with a single read at Ex485 Em535 (Analyst settings: Z Height 5 mm, G Factor 0.95, Reads/well 1, Integration 100000 μs, Gain Sensitivity 2).
# Percentage inhibition was calculated based on activity of the test sample minus the average values in the blank wells relative to the average values measured in control wells minus the average values in the blank wells.
# IC50 values were calculated from 10 point dose sigmoid ‘dose-response’ curves using Xlfit software (IDBS inc, USA). […]
structure (smiles),measurement,value
"COc1cc(-c2nc(-c3cccc(C(=O)NCCN(C)C)c3)cnc2N)ccc1O [X-017, 3-[5-Amino-6-(4-hydroxy-3-methoxy-phenyl)-pyrazin-2-yl]-N-(2-dimethylamino-ethyl)-benzamide]",IC50,4 nM
"COc1cc(-c2cc(-c3cccc(C(=O)NCCN(C)C)c3)cnc2N)ccc1O [Y-059, 3-[6-Amino-5-(4-hydroxy-3-methoxy-phenyl)-pyridin-3-yl]-N-(2-dimethylamino-ethyl)-benzamide]",IC50,6 nM
